# Experimental data taken from patent US10570129B2 (Zoetis Services LLC, priority 2015, dated 2020).
# Experiments:
# Haemonchus contortus L3 = experiment: microbe, parasite or virus in culture; type: cell-based; conditions: Haemonchus contortus, 96 h, read-out: HcL3 Minimal Effective Concentration (MEC)
# D. immitis microfilariae = experiment: Dirofilaria immitis, microfilariae (DiMF) in vitro motility assay; type: cell-based; conditions: Dirofilaria immitis, 72 h, read-out: DiMF minimally effective dose (MEC)
Structure (SMILES),minimal effective concentration (Haemonchus contortus L3) [µM],minimal effective concentration (D. immitis microfilariae) [µM]
"N#Cc1cc2c3c(n(C(=O)NCc4ccnc(Cl)c4)c2cc1Cl)CCN(C/C=C/c1ccc(Cl)cc1)C3 [Example 177, (E)-7-chloro-2-(3-(4-chlorophenyl)allyl)-N-((2-chloropyridin-4-yl)methyl)-8-cyano-1,2,3,4-tetrahydro-5H-pyrido[4,3-b]indole-5-carboxamide]",0.3,5.7
"O=C(NCc1ccnc(Cl)c1)n1c2c(c3cc(Br)ccc31)CN(C/C=C/c1ccc(OC(F)(F)F)cc1)CC2 [Example 187, (E)-8-bromo-N-((2-chloropyridin-4-yl)methyl)-2-(3-(4-(trifluoromethoxy)phenyl)allyl)-1,2,3,4-tetrahydro-5H-pyrido[4,3-b]indole-5-carboxamide]",1.3,> 100
"O=C(NCc1ccnc(Cl)c1)n1c2c(c3c(Cl)cccc31)CN(C/C=C/c1ccc(F)cc1)CC2 [Example 218, (E)-9-chloro-N-((2-chloropyridin-4-yl)methyl)-2-(3-(4-fluorophenyl)allyl)-1,2,3,4-tetrahydro-5H-pyrido[4,3-b]indole-5-carboxamide]",1,10
"O=C(NCc1ccnc(Cl)c1)n1c2c(c3c(C(F)(F)F)cccc31)CN(C/C=C/c1ccc(C(F)(F)F)cc1)CC2 [Example 162, (E)-N-((2-chloropyridin-4-yl)methyl)-9-(trifluoromethyl)-2-(3-(4-(trifluoromethyl)-phenyl)allyl)-1,2,3,4-tetrahydro-5H-pyrido[4,3-b]indole-5-carboxamide]",> 100,10
"O=C(NCc1ccnc(Cl)c1)n1c2c(c3cc(OC(F)(F)F)ccc31)CN(C/C=C/c1ccc(Cl)c(F)c1)CC2 [Example 384, (E)-2-(3-(4-chloro-3-fluorophenyl)allyl)-N-((2-chloropyridin-4-yl)methyl)-8-(trifluoromethoxy)-1,2,3,4-tetrahydro-5H-pyrido[4,3-b]indole-5-carboxamide]",1,18.2
"O=C(NCc1ccnc(F)c1)n1c2c(c3ccc(OC(F)(F)F)cc31)CN(C/C=C/c1ccc(F)cc1Cl)CC2 [Example 373, (E)-2-(3-(2-chloro-4-fluorophenyl)allyl)-N-((2-fluoropyridin-4-yl)methyl)-7-(trifluoromethoxy)-1,2,3,4-tetrahydro-5H-pyrido[4,3-b]indole-5-carboxamide]",1.8,10
"O=C(NCc1ccnc(Cl)c1)n1c2c(c3cc(Cl)c(OC(F)(F)F)cc31)CN(C/C=C/c1ccc(Cl)cc1)CC2 [Example 499, (E)-8-chloro-2-(3-(4-chlorophenyl)allyl)-N-((2-chloropyridin-4-yl)methyl)-7-(trifluoromethoxy)-1,2,3,4-tetrahydro-5H-pyrido[4,3-b]indole-5-carboxamide]",1.8,> 100
"COc1ccc(/C=C/CN2CCc3c(c4cccc(Cl)c4n3C(=O)NCc3ccnc(Cl)c3)C2)cc1 [Example 270, (E)-6-chloro-N-((2-chloropyridin-4-yl)methyl)-2-(3-(4-methoxyphenyl)allyl)-1,2,3,4-tetrahydro-5H-pyrido[4,3-b]indole-5-carboxamide]",> 100,10
"N#Cc1ccc2c3c(n(C(=O)NCc4ccnc(Cl)c4)c2c1)CCN(C/C=C/c1c(F)c(F)c(Cl)c(F)c1F)C3 [Example 17, (E)-2-(3-(4-chloro-2,3,5,6-tetrafluorophenyl)allyl)-N-((2-chloropyridin-4-yl)methyl)-7-cyano-1,2,3,4-tetrahydro-5H-pyrido[4,3-b]indole-5-carboxamide]",1,> 100
"Cc1cc(/C=C/CN2CCc3c(c4cc(C#N)ccc4n3C(=O)NCc3ccnc(Cl)c3)C2)ccc1Cl [Example 96, (E)-2-(3-(4-chloro-3-methylphenyl)allyl)-N-((2-chloropyridin-4-yl)methyl)-8-cyano-1,2,3,4-tetrahydro-5H-pyrido[4,3-b]indole-5-carboxamide]",0.2,> 100
"N#Cc1ccc2c3c(n(C(=O)NCc4ccnc(F)c4)c2c1)CCN(C/C=C/c1ccc(Cl)c(F)c1)C3 [Example 51, (E)-2-(3-(4-chloro-3-fluorophenyl)allyl)-7-cyano-N-((2-fluoropyridin-4-yl)methyl)-1,2,3,4-tetrahydro-5H-pyrido[4,3-b]indole-5-carboxamide]",3.3,5.7
"N#Cc1ccc2c(c1)c1c(n2C(=O)NCc2ccnc(F)c2)CCN(C/C=C/c2cc(F)c(F)c(F)c2)C1 [Example 116, (E)-8-cyano-N-((2-fluoropyridin-4-yl)methyl)-2-(3-(3,4,5-trifluorophenyl)allyl)-1,2,3,4-tetrahydro-5H-pyrido[4,3-b]indole-5-carboxamide]",0.1,1.3
"O=C(NCc1ccnc(F)c1)n1c2c(c3ccc(Cl)cc31)CN(C/C=C/c1ccc(F)c(Cl)c1)CC2 [Example 227, (E)-7-chloro-2-(3-(3-chloro-4-fluorophenyl)allyl)-N-((2-fluoropyridin-4-yl)methyl)-1,2,3,4-tetrahydro-5H-pyrido[4,3-b]indole-5-carboxamide]",5.7,1.8
"N#Cc1ccc2c3c(n(C(=O)NCc4ccnc(Cl)c4)c2c1)CCN(C/C=C/c1ccc(F)cc1F)C3 [Example 26, (E)-N-((2-chloropyridin-4-yl)methyl)-7-cyano-2-(3-(2,4-difluorophenyl)allyl)-1,2,3,4-tetrahydro-5H-pyrido[4,3-b]indole-5-carboxamide]",2.4,5.7
"O=C(NCc1ccnc(Cl)c1)n1c2c(c3ccc(OC(F)(F)F)cc31)CN(Cc1ccc3cc(Br)ccc3c1)CC2 [Example 364, 2-((6-bromonaphthalen-2-yl)methyl)-N-((2-chloropyridin-4-yl)methyl)-7-(trifluoromethoxy)-1,2,3,4-tetrahydro-5H-pyrido[4,3-b]indole-5-carboxamide]",> 100,1.8
"O=C(NCc1ccnc(Cl)c1)n1c2c(c3cc(Br)c(Br)cc31)CN(C/C=C/c1ccc(Cl)cc1)CC2 [Example 198, (E)-7,8-dibromo-2-(3-(4-chlorophenyl)allyl)-N-((2-chloropyridin-4-yl)methyl)-1,2,3,4-tetrahydro-5H-pyrido[4,3-b]indole-5-carboxamide]",1,5.7
"O=C(NCc1ccnc(F)c1)n1c2c(c3cc(Cl)ccc31)CN(C/C=C/c1ccc(Cl)cc1F)CC2 [Example 255, (E)-8-chloro-2-(3-(4-chloro-2-fluorophenyl)allyl)-N-((2-fluoropyridin-4-yl)methyl)-1,2,3,4-tetrahydro-5H-pyrido[4,3-b]indole-5-carboxamide]",0.3,18.2
"O=C(NCc1ccnc(Cl)c1)n1c2c(c3cc(OC(F)(F)F)ccc31)CN(C/C=C/c1ccc(F)c(Cl)c1)CC2 [Example 388, (E)-2-(3-(3-chloro-4-fluorophenyl)allyl)-N-((2-chloropyridin-4-yl)methyl)-8-(trifluoromethoxy)-1,2,3,4-tetrahydro-5H-pyrido[4,3-b]indole-5-carboxamide]",1.8,> 100
